Data: PubChem BioAssay (NCI)
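Values below derive from 48-hour exposures of cells grown in 96-well plates, with endpoints linearly interpolated between the two concentrations bracketing the appropriate inhibition level. At the GI50, growth is halved. At the TGI there is no net growth.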

Key:
Experiment in all cases: NCI anticancer screen, dose series, 48 h
[1] = test system: COLO 205 colon
[2] = test system: SK-MEL-2 melanoma
[3] = test system: UACC-62 melanoma
[4] = test system: OVCAR-4 ovarian
[5] = test system: NCI-H226 lung
[6] = test system: RXF 393 renal
[7] = test system: MCF7 breast
[8] = test system: KM12 colon
[9] = test system: SK-OV-3 ovarian
[10] = test system: ACHN renal
[11] = test system: OVCAR-5 ovarian
[12] = test system: SK-MEL-5 melanoma
[13] = test system: HL-60(TB) leukemia
[14] = test system: T-47D breast
[15] = test system: NCI-H460 lung
[16] = test system: DU-145 prostate
[17] = test system: NCI-H522 lung
[18] = test system: 786-0 renal
[19] = test system: SN12C renal
[20] = test system: RPMI-8226 leukemia
[21] = test system: NCI-H23 lung
[22] = test system: SF-268 CNS
[23] = test system: HCC-2998 colon
[24] = test system: CCRF-CEM leukemia
[25] = test system: SF-539 CNS
[26] = test system: EKVX NSCLC
[27] = test system: A549 NSCLC
[28] = test system: HS 578T breast
[29] = test system: HOP-62 NSCLC
[30] = test system: TK-10 renal
[31] = test system: HOP-92 NSCLC
[32] = test system: K-562 leukemia
[33] = test system: SNB-75 CNS
[34] = test system: SW-620 colon
[35] = test system: LOX IMVI melanoma
[36] = test system: BT-549 breast
[37] = test system: SNB-19 CNS
[38] = test system: HCT-116 colon
[39] = test system: HT29 colon
[40] = test system: U251 CNS
[41] = test system: SK-MEL-28 melanoma
[42] = test system: M14 melanoma
[43] = test system: UO-31 renal
[44] = test system: MOLT-4 leukemia
[45] = test system: PC-3 prostate
[46] = test system: UACC-257 melanoma
[47] = test system: MDA-MB-435
[48] = test system: CAKI-1 renal
[49] = test system: IGROV1 ovarian
[50] = test system: NCI/ADR-RES ovarian
[51] = test system: OVCAR-8 ovarian
[52] = test system: HCT-15 colon
[53] = test system: MDA-MB-231 breast
[54] = test system: MALME-3M melanoma
[55] = test system: SF-295 CNS
[56] = test system: A498 renal

Q: Which GI50 [1] does the source give for `CCCCCc1ccc(S(=O)(=O)N(C(C)=O)c2cccc(-c3csc(N(CCN4CCN(C)CC4)C(C)=O)n3)c2)cc1` here?
A: Its GI50 is 0.815 µM.

Q: And the TGI [1]?
A: Its TGI is 2.96 µM.

Q: And the GI50 [2]?
A: Its GI50 is 3.99 µM.

Q: What about the TGI [2] of the same compound?
A: Its TGI is 7.44 µM.

Q: And the GI50 [3]?
A: Its GI50 is 4.21 µM.

Q: And the TGI [3]?
A: The TGI was 7.79 µM.

Q: What about the GI50 [4] of the same compound?
A: The GI50 was 3.49 µM.

Q: What about the TGI [4] of the same compound?
A: The TGI was 7.42 µM.

Q: And the GI50 [5]?
A: The GI50 was 4.09 µM.

Q: And the TGI [5]?
A: Its TGI is 8.82 µM.

Q: And the GI50 [6]?
A: Its GI50 is 1.19 µM.

Q: What about the TGI [6] of the same compound?
A: Its TGI is 4.35 µM.

Q: And the GI50 [7]?
A: Its GI50 is 0.83 µM.

Q: And the TGI [7]?
A: The TGI was 3.3 µM.

Q: And the GI50 [8]?
A: Its GI50 is 4.04 µM.

Q: What about the TGI [8] of the same compound?
A: Its TGI is 8.04 µM.

Q: And the GI50 [9]?
A: Its GI50 is 4.04 µM.

Q: What about the TGI [9] of the same compound?
A: Its TGI is 7.64 µM.

Q: What about the GI50 [10] of the same compound?
A: The GI50 was 3.52 µM.

Q: What about the TGI [10] of the same compound?
A: The TGI was 6.77 µM.

Q: What about the GI50 [11] of the same compound?
A: Its GI50 is 3.5 µM.

Q: What about the TGI [11] of the same compound?
A: The TGI was 6.81 µM.

Q: What about the GI50 [12] of the same compound?
A: The GI50 was 3.31 µM.

Q: What about the TGI [12] of the same compound?
A: The TGI was 6.57 µM.

Q: What about the GI50 [13] of the same compound?
A: Its GI50 is 0.991 µM.

Q: What about the TGI [13] of the same compound?
A: The TGI was 4.51 µM.

Q: And the GI50 [14]?
A: The GI50 was 2.79 µM.

Q: What about the TGI [14] of the same compound?
A: The TGI was 6.73 µM.

Q: And the GI50 [15]?
A: Its GI50 is 1.4 µM.

Q: And the TGI [15]?
A: The TGI was 4.61 µM.

Q: And the GI50 [16]?
A: The GI50 was 3.48 µM.

Q: What about the TGI [16] of the same compound?
A: Its TGI is 6.81 µM.

Q: What about the GI50 [17] of the same compound?
A: The GI50 was 3.91 µM.

Q: What about the TGI [17] of the same compound?
A: Its TGI is 7.55 µM.

Q: And the GI50 [18]?
A: The GI50 was 0.642 µM.

Q: What about the TGI [18] of the same compound?
A: The TGI was 2 µM.

Q: And the GI50 [19]?
A: Its GI50 is 3.4 µM.

Q: What about the TGI [19] of the same compound?
A: Its TGI is 6.75 µM.

Q: What about the GI50 [20] of the same compound?
A: The GI50 was 2.5 µM.

Q: What about the TGI [20] of the same compound?
A: Its TGI is 7.53 µM.

Q: What about the GI50 [21] of the same compound?
A: Its GI50 is 3.8 µM.

Q: What about the TGI [21] of the same compound?
A: Its TGI is 7.39 µM.

Q: And the GI50 [22]?
A: The GI50 was 3.56 µM.

Q: And the TGI [22]?
A: Its TGI is 7.6 µM.

Q: What about the GI50 [23] of the same compound?
A: The GI50 was 1.15 µM.

Q: And the TGI [23]?
A: Its TGI is 4.07 µM.

Q: And the GI50 [24]?
A: The GI50 was 1.95 µM.

Q: What about the TGI [24] of the same compound?
A: The TGI was 7.49 µM.

Q: What about the GI50 [25] of the same compound?
A: The GI50 was 3.64 µM.

Q: And the TGI [25]?
A: Its TGI is 7.01 µM.

Q: What about the GI50 [26] of the same compound?
A: Its GI50 is 3.79 µM.

Q: What about the TGI [26] of the same compound?
A: Its TGI is 7.27 µM.

Q: And the GI50 [27]?
A: Its GI50 is 3.03 µM.

Q: What about the TGI [27] of the same compound?
A: The TGI was 6.27 µM.

Q: And the GI50 [28]?
A: The GI50 was 3.3 µM.

Q: And the TGI [28]?
A: The TGI was 10.8 µM.

Q: What about the GI50 [29] of the same compound?
A: Its GI50 is 3.58 µM.

Q: And the TGI [29]?
A: Its TGI is 7.3 µM.

Q: What about the GI50 [30] of the same compound?
A: Its GI50 is 4.08 µM.

Q: And the TGI [30]?
A: Its TGI is 7.57 µM.

Q: What about the GI50 [31] of the same compound?
A: Its GI50 is 1.06 µM.

Q: And the TGI [31]?
A: The TGI was 4.62 µM.

Q: And the GI50 [32]?
A: The GI50 was 0.751 µM.

Q: What about the TGI [32] of the same compound?
A: Its TGI is 3.01 µM.

Q: And the GI50 [33]?
A: The GI50 was 1.06 µM.

Q: And the TGI [33]?
A: The TGI was 5.21 µM.

Q: And the GI50 [34]?
A: Its GI50 is 0.824 µM.

Q: What about the TGI [34] of the same compound?
A: Its TGI is 3.19 µM.

Q: And the GI50 [35]?
A: Its GI50 is 0.085 µM.

Q: What about the TGI [35] of the same compound?
A: The TGI was 1.26 µM.

Q: What about the GI50 [36] of the same compound?
A: Its GI50 is 2.94 µM.

Q: What about the TGI [36] of the same compound?
A: The TGI was 6.04 µM.

Q: What about the GI50 [37] of the same compound?
A: Its GI50 is 3.63 µM.

Q: What about the TGI [37] of the same compound?
A: Its TGI is 7.14 µM.

Q: What about the GI50 [38] of the same compound?
A: The GI50 was 0.929 µM.

Q: What about the TGI [38] of the same compound?
A: The TGI was 3.41 µM.

Q: And the GI50 [39]?
A: Its GI50 is 0.856 µM.

Q: What about the TGI [39] of the same compound?
A: The TGI was 2.71 µM.

Q: And the GI50 [40]?
A: The GI50 was 2.75 µM.

Q: And the TGI [40]?
A: Its TGI is 5.81 µM.

Q: What about the GI50 [41] of the same compound?
A: Its GI50 is 3.07 µM.

Q: What about the TGI [41] of the same compound?
A: Its TGI is 6.22 µM.

Q: What about the GI50 [42] of the same compound?
A: The GI50 was 2.23 µM.

Q: What about the TGI [42] of the same compound?
A: The TGI was 5.64 µM.

Q: What about the GI50 [43] of the same compound?
A: Its GI50 is 2.86 µM.

Q: And the TGI [43]?
A: Its TGI is 5.96 µM.

Q: And the GI50 [44]?
A: Its GI50 is 1.22 µM.

Q: What about the TGI [44] of the same compound?
A: Its TGI is 5.26 µM.

Q: And the GI50 [45]?
A: The GI50 was 3.32 µM.

Q: What about the TGI [45] of the same compound?
A: Its TGI is 7.06 µM.

Q: And the GI50 [46]?
A: Its GI50 is 4.37 µM.

Q: And the TGI [46]?
A: The TGI was 8.1 µM.

Q: What about the GI50 [47] of the same compound?
A: Its GI50 is 0.987 µM.

Q: And the TGI [47]?
A: Its TGI is 3.74 µM.

Q: What about the GI50 [48] of the same compound?
A: The GI50 was 2.93 µM.

Q: And the TGI [48]?
A: Its TGI is 6.2 µM.

Q: And the GI50 [49]?
A: The GI50 was 2.96 µM.

Q: And the TGI [49]?
A: Its TGI is 6.61 µM.

Q: What about the GI50 [50] of the same compound?
A: Its GI50 is 3.5 µM.

Q: What about the TGI [50] of the same compound?
A: Its TGI is 7.55 µM.

Q: And the GI50 [51]?
A: The GI50 was 3.51 µM.

Q: And the TGI [51]?
A: The TGI was 6.95 µM.

Q: What about the GI50 [52] of the same compound?
A: The GI50 was 0.837 µM.

Q: And the TGI [52]?
A: Its TGI is 2.98 µM.

Q: What about the GI50 [53] of the same compound?
A: Its GI50 is 2.64 µM.

Q: What about the TGI [53] of the same compound?
A: The TGI was 5.96 µM.

Q: What about the GI50 [54] of the same compound?
A: The GI50 was 1.58 µM.

Q: And the TGI [54]?
A: Its TGI is 5.04 µM.

Q: And the GI50 [55]?
A: The GI50 was 3.63 µM.

Q: What about the TGI [55] of the same compound?
A: Its TGI is 7.15 µM.

Q: And the GI50 [56]?
A: The GI50 was 1.24 µM.

Q: And the TGI [56]?
A: Its TGI is 4.75 µM.
